# Experimental data as given in patent US20170245538A1, “SOLID DISPERSION OF AMIDE FLAVOR COMPOUNDS” (Firmenich SA, priority 2014, published 2017).
# Assay: dissolution kinetics in water followed on-line by UV/Vis spectroscopy
# Type: physicochemical
# Conditions: 20 mg pure compound in 1L milli Q water at 60° C.
# Experimental: The dissolution kinetics of example 4 in water was tested. A final concentration of (E)-3-(3,4-dimethoxyphenyl)-N-(4-methoxyphenethyl)acrylamide of 20 ppm dissolved in water was targeted. Eighty (80) mg of a solid dispersion of (E)-3-(3,4-dimethoxyphenyl)-N-(4-methoxyphenethyl)acrylamide and gum arabic was dispersed in 1L of milli Q water heated at 60° C. The solution was stirred mechanically by the means of a paddle stirrer at 200 rpm. The dissolution process was followed on-line by monitoring the UV signal of dissolved (E)-3-(3,4-dimethoxyphenyl)-N-(4-methoxyphenethyl)acrylamide with UV/Vis spectroscopy using a fiber optic probe from Ocean Optics. The powder was entirely dissolved after 2 minutes. The maximum dissolution rate during the process was 28 ppm/minute.
# Comparative example: (E)-3-(3,4-dimethoxyphenyl)-N-(4-methoxyphenethyl)acrylamide pure. A final concentration of (E)-3-(3,4-dimethoxyphenyl)-N-(4-methoxyphenethyl)acrylamide of 20 ppm dissolved in water was targeted. Twenty (20) mg of the pure (E)-3-(3,4-dimethoxyphenyl)-N-(4-methoxyphenethyl)acrylamide were dispersed in 1L of milli Q water heated at 60° C. The dissolution process yielded 50% of the target concentration of 20 ppm (10 ppm) after 78 minutes. The target concentration could not be achieved after 6 hours. The concentration of dissolved (E)-3-(3,4-dimethoxyphenyl)-N-(4-methoxyphenethyl)acrylamide after 6 hours was 15 ppm (75% of target).
smiles,measurement,setting,value
"COc1ccc(CCNC(=O)/C=C/c2ccc(OC)c(OC)c2)cc1 [(E)-3-(3,4-dimethoxyphenyl)-N-(4-methoxyphenethyl)acrylamide]",time to 50% of the target concentration of 20 ppm (10 ppm),,78 min
same,concentration of dissolved compound after 6 hours,after 6 hours,15 ppm
same,dissolved compound after 6 hours as % of target,"after 6 hours, target 20 ppm",75 % of target
same,time to achieve the target concentration (20 ppm),target could not be achieved,> 6 h
